Experimental data from patent publication US9012651B2, “TRPV3 modulators” (AbbVie Inc., priority 2011, dated 2015).

Target: human TRPV3 receptors (Homo sapiens (Human), UniProt Q8NET8)
Experiment: Calcium flux assay (FLIPR TETRA), inhibition of the 2-APB response
Format: cell-based
Details: recombinant HEK293 cells stably expressing TRPV3, Calcium-4 dye, 2-APB at its EC80
In short: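 Responses are given relative to the maximal 2-APB signal in the absence of compound, using peak fluorescence over baseline. Measured by FLIPR Tetra calcium flux in stable human and mouse TRPV3 HEK293 cells after 90-120 min dark dye incubation.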

Chain of human TRPV3 receptors (Q8NET8 whole entry): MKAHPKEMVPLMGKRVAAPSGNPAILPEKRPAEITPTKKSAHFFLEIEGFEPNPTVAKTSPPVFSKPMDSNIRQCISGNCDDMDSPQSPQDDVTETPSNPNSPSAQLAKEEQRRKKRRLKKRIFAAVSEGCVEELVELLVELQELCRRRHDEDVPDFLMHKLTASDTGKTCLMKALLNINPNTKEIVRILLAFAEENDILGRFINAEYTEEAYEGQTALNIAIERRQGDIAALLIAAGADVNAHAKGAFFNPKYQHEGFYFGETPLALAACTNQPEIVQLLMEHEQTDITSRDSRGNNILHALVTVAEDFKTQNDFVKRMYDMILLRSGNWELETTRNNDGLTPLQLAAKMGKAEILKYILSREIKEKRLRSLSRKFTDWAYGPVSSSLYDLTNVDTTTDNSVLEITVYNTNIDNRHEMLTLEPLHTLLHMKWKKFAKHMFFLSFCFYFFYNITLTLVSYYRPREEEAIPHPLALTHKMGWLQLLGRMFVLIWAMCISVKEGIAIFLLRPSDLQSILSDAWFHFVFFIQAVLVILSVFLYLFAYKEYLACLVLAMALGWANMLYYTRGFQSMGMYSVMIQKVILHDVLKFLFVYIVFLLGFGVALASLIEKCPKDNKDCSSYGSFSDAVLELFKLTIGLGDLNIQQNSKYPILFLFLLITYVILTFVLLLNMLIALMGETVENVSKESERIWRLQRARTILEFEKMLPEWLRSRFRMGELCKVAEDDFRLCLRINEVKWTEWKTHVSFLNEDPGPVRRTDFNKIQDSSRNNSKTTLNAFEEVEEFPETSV

SMILES | IC50 [µM]
OC(CCNCc1ccnc(-c2ccc(C(F)(F)F)cc2)n1)c1ccccc1 (stereo not shown) [Example 164, 1-phenyl-3-[({2-[4-(trifluoromethyl)phenyl]pyrimidin-4-yl}methyl)amino]propan-1-ol] | > 20
O[C@H]1CCCC[C@@H]1CNCc1ccnc(-c2ccc(C(F)(F)F)cc2)n1 [Example 165, (1S,2R)-2-{[({2-[4-(trifluoromethyl)phenyl]pyrimidin-4-yl}methyl)amino]methyl}cyclohexanol] | > 20
O[C@@H]1CCCC[C@@H]1CNCc1ccnc(-c2ccc(C(F)(F)F)cc2)n1 [Example 166, (1R,2R)-2-{[({2-[4-(trifluoromethyl)phenyl]pyrimidin-4-yl}methyl)amino]methyl}cyclohexanol] | > 20
OC[C@H]1CCCC[C@@H]1NCc1ccnc(-c2ccc(C(F)(F)F)cc2)n1 [Example 167, {(1S,2S)-2-[({2-[4-(trifluoromethyl)phenyl]pyrimidin-4-yl}methyl)amino]cyclohexyl}methanol] | > 20
OC[C@@H]1CCCC[C@@H]1NCc1ccnc(-c2ccc(C(F)(F)F)cc2)n1 [Example 168, {(1R,2S)-2-[({2-[4-(trifluoromethyl)phenyl]pyrimidin-4-yl}methyl)amino]cyclohexyl}methanol] | > 20
OC[C@@H]1[C@H]2CC[C@H](C2)[C@@H]1NCc1ccnc(-c2ccc(C(F)(F)F)cc2)n1 [Example 169, {(1S,2R,3S,4R)-3-[({2-[4-(trifluoromethyl)phenyl]pyrimidin-4-yl}methyl)amino]bicyclo[2.2.1]hept-2-yl]methanol] | > 20
OC[C@H]1[C@H]2CC[C@H](C2)[C@H]1NCc1ccnc(-c2ccc(C(F)(F)F)cc2)n1 [Example 170, {(1S,2S,3R,4R)-3-[({2-[4-(trifluoromethyl)phenyl]pyrimidin-4-yl}methyl)amino]bicyclo[2.2.1]hept-2-yl]methanol] | 6.16
O[C@H]1CCCC[C@@H]1NCc1ccnc(-c2ccc(C(F)(F)F)cc2)n1 [Example 171, (1S,2S)-2-[({2-[4-(trifluoromethyl)phenyl]pyrimidin-4-yl}methyl)amino]cyclohexanol] | 5.51
O[C@@H]1CCCC[C@@H]1NCc1ccnc(-c2ccc(C(F)(F)F)cc2)n1 [Example 172, (1R,2S)-2-[({2-[4-(trifluoromethyl)phenyl]pyrimidin-4-yl}methyl)amino]cyclohexanol] | 4.93
O[C@@H]1CCC[C@@H]1NCc1ccnc(-c2ccc(C(F)(F)F)cc2)n1 [Example 173, (1R,2S)-2-[({2-[4-(trifluoromethyl)phenyl]pyrimidin-4-yl}methyl)amino]cyclopentanol] | > 20
O[C@H]1CCC[C@@H]1NCc1ccnc(-c2ccc(C(F)(F)F)cc2)n1 [Example 174, (1S,2S)-2-[({2-[4-(trifluoromethyl)phenyl]pyrimidin-4-yl}methyl)amino]cyclopentanol] | > 20
CC(C)(O)CNCc1ccnc(-c2ccc(C(F)(F)F)cc2)n1 [Example 175, 2-methyl-1-[({2-[4-(trifluoromethyl)phenyl]pyrimidin-4-yl}methyl)amino]propan-2-ol] | > 20
OC1(CNCc2ccnc(-c3ccc(C(F)(F)F)cc3)n2)CC1 [Example 176, 1-{[({2-[4-(trifluoromethyl)phenyl]pyrimidin-4-yl}methyl)amino]methyl}cyclopropanol] | > 20
OC1(CNCc2ccnc(-c3ccc(C(F)(F)F)cc3)n2)CCCC1 [Example 177, 1-{[({2-[4-(trifluoromethyl)phenyl]pyrimidin-4-yl}methyl)amino]methyl}cyclopentanol] | > 20
OC1(CNCc2ccnc(-c3ccc(C(F)(F)F)cc3)n2)CCCCC1 [Example 178, 1-{[({2-[4-(trifluoromethyl)phenyl]pyrimidin-4-yl}methyl)amino]methyl}cyclohexanol] | > 20
OC(CNCc1ccnc(-c2ccc(C(F)(F)F)cc2)n1)C(F)(F)F (stereo not shown) [Example 179, 1,1,1-trifluoro-3-[({2-[4-(trifluoromethyl)phenyl]pyrimidin-4-yl}methyl)amino]propan-2-ol] | > 20
C[C@H](O)CNCc1ccnc(-c2ccc(C(F)(F)F)cc2)n1 [Example 180, (2S)-1-[({2-[4-(trifluoromethyl)phenyl]pyrimidin-4-yl}methyl)amino]propan-2-ol] | > 20
CCC(O)CNCc1ccnc(-c2ccc(C(F)(F)F)cc2)n1 (stereo not shown) [Example 181, 1-[({2-[4-(trifluoromethyl)phenyl]pyrimidin-4-yl}methyl)amino]butan-2-ol] | > 20
OC(CNCc1ccnc(-c2ccc(C(F)(F)F)cc2)n1)c1ccccc1 (stereo not shown) [Example 182, 1-phenyl-2-[({2-[4-(trifluoromethyl)phenyl]pyrimidin-4-yl}methyl)amino]ethanol] | > 20
C[C@@H](O)CNCc1ccnc(-c2ccc(C(F)(F)F)cc2)n1 [Example 183, (2R)-1-[({2-[4-(trifluoromethyl)phenyl]pyrimidin-4-yl}methyl)amino]propan-2-ol] | > 20
CC(C)[C@H](CO)NCc1ccnc(-c2ccc(C(F)(F)F)nc2)n1 [Example 184, (2R)-3-methyl-2-[({2-[6-(trifluoromethyl)pyridin-3-yl]pyrimidin-4-yl}methyl)amino]butan-1-ol] | 2.94
OCC1(NCc2ccnc(-c3ccc(C(F)(F)F)nc3)n2)CCCCC1 [Example 185, {1-[({2-[6-(trifluoromethyl)pyridin-3-yl]pyrimidin-4-yl}methyl)amino]cyclohexyl}methanol] | > 20
CC[C@H](CO)NCc1ccnc(-c2ccc(C(F)(F)F)nc2)n1 [Example 186, (2R)-2-[({2-[6-(trifluoromethyl)pyridin-3-yl]pyrimidin-4-yl}methyl)amino]butan-1-ol] | > 20
COCC(CO)NCc1ccnc(-c2ccc(C(F)(F)F)nc2)n1 (stereo not shown) [Example 187, 3-methoxy-2-[({2-[6-(trifluoromethyl)pyridin-3-yl]pyrimidin-4-yl}methyl)amino]propan-1-ol] | > 20
OC[C@H](NCc1ccnc(-c2ccc(C(F)(F)F)nc2)n1)C1CC1 [Example 188, (2R)-2-cyclopropyl-2-[({2-[6-(trifluoromethyl)pyridin-3-yl]pyrimidin-4-yl}methyl)amino]ethanol] | > 20
CC(C)(O)[C@H](CO)NCc1ccnc(-c2ccc(C(F)(F)F)nc2)n1 [Example 189, (2S)-3-methyl-2-[({2-[6-(trifluoromethyl)pyridin-3-yl]pyrimidin-4-yl}methyl)amino]butane-1,3-diol] | > 20
CC(O)C(C)NCc1ccnc(-c2ccc(C(F)(F)F)nc2)n1 (stereo not shown) [Example 190, 3-[({2-[6-(trifluoromethyl)pyridin-3-yl]pyrimidin-4-yl}methyl)amino]butan-2-ol] | 8.15
C[C@@H](O)[C@@H](CO)NCc1ccnc(-c2ccc(C(F)(F)F)nc2)n1 [Example 191, (2R,3R)-2-[({2-[6-(trifluoromethyl)pyridin-3-yl]pyrimidin-4-yl}methyl)amino]butane-1,3-diol] | > 20

Now from value to molecule:

IC50 [µM] | SMILES
> 20 | CC(C)[C@H](CO)NCc1ccnc(-c2ccc(C(F)(F)F)cn2)n1 [Example 192, (2R)-3-methyl-2-[({2-[5-(trifluoromethyl)pyridin-2-yl]pyrimidin-4-yl}methyl)amino]butan-1-ol]
> 20 | CC[C@H](CO)NCc1ccnc(-c2ccc(C(F)(F)F)cn2)n1 [Example 194, (2R)-2-[({2-[5-(trifluoromethyl)pyridin-2-yl]pyrimidin-4-yl}methyl)amino]butan-1-ol]
> 20 | COCC(CO)NCc1ccnc(-c2ccc(C(F)(F)F)cn2)n1 (stereo not shown) [Example 195, 3-methoxy-2-[({2-[5-(trifluoromethyl)pyridin-2-yl]pyrimidin-4-yl}methyl)amino]propan-1-ol]
> 20 | OC[C@H](NCc1ccnc(-c2ccc(C(F)(F)F)cn2)n1)C1CC1 [Example 196, (2R)-2-cyclopropyl-2-[({2-[5-(trifluoromethyl)pyridin-2-yl]pyrimidin-4-yl}methyl)amino]ethanol]
> 20 | CC(C)(O)[C@H](CO)NCc1ccnc(-c2ccc(C(F)(F)F)cn2)n1 [Example 197, (2S)-3-methyl-2-[({2-[5-(trifluoromethyl)pyridin-2-yl]pyrimidin-4-yl}methyl)amino]butane-1.3-diol]
> 20 | C[C@@H](O)[C@@H](CO)NCc1ccnc(-c2ccc(C(F)(F)F)cn2)n1 [Example 198, (2R,3R)-2-[({2-[5-(trifluoromethyl)pyridin-2-yl]pyrimidin-4-yl}methyl)amino]butane-1,3-diol]
1.59 | CC(C)[C@H](CO)NCc1nc(C2CC3CCC2C3)ccc1F (stereo partly drawn) [Example 199, (2R)-2-({[6-(bicyclo[2.2.1]hept-2-yl)-3-fluoropyridin-2-yl]methyl}amino)-3-methylbutan-1-ol]
1.03 | CC1CCC(c2ccc(F)c(CN[C@@H](CO)C(C)C)n2)CC1 (stereo partly drawn) [Example 200, (2R)-2-({[3-fluoro-6-(4-methylcyclohexyl)pyridin-2-yl]methyl}amino)-3-methylbutan-1-ol]
0.77 | CCC1CCC(c2ccc(F)c(CN[C@@H](CO)C(C)C)n2)CC1 (stereo partly drawn) [Example 201, (2R)-2-({[6-(4-ethylcyclohexyl)-3-fluoropyridin-2-yl]methyl}amino)-3-methylbutan-1-ol]
0.79 | CC(C)[C@H](CO)NCc1nc(C2CCC(C)(C)CC2)ccc1F [Example 202, (2R)-2-({[6-(4,4-dimethylcyclohexyl)-3-fluoropyridin-2-yl]methyl}amino)-3-methylbutan-1-ol]
0.53 | CC(C)[C@H](CO)NCc1nc(C2CCC(F)(F)CC2)ccc1F [Example 203, (2R)-2-({[6-(4,4-difluorocyclohexyl)-3-fluoropyridin-2-yl]methyl}amino)-3-methylbutan-1-ol]
> 20 | CC(C)[C@H](CO)NCc1nc(C2CCOCC2)ccc1F [Example 204, (2R)-2-({[3-fluoro-6-(tetrahydro-2H-pyran-4-yl)pyridin-2-yl]methyl}amino)-3-methylbutan-1-ol]
